Where a name gives a salt, the structure may show the parent alone.
Molecular target: T1, human V1a receptor (Homo sapiens, UniProt P37288)
T1 construct: expressed in transfected cells; host or cells: HEK293 cells, transiently transfected; cell membranes
Assay: human V1a receptor binding (3H-Vasopressin SPA, HEK293 membranes)
Conditions: displacement of 4 nM 3H-Vasopressin, membranes of HEK293 cells transiently transfected with human V1a receptor; Ki from IC50 by Cheng-Prussoff
Outline: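 Ki derived by Cheng-Prusoff from IC50 curves normalised to specific binding. Serially diluted compounds (in 2% DMSO) competed with 3H-vasopressin (4 nM working solution) for 1 h at room temperature on SPA beads bearing membranes of transiently transfected HEK293 cells; unlabelled vasopressin defined non-specific counts.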

T1 sequence (P37288 whole entry): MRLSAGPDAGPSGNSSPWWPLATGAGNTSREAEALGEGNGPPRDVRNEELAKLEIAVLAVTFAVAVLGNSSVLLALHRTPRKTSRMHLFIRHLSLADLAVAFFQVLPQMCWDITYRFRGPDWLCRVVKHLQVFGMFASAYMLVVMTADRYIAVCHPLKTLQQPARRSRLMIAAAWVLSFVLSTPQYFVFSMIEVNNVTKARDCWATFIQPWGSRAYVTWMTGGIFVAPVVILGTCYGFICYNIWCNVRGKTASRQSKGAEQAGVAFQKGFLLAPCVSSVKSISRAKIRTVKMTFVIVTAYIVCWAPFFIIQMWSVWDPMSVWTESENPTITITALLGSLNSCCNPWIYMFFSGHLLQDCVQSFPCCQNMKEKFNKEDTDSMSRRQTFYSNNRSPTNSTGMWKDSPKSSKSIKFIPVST

| SMILES | Ki |
| --- | --- |
| O=C1OC2(CCN(C(=O)c3cn(Cc4ccccn4)c4cc(Cl)ccc34)CC2)c2ccccc21 [Example 180, 1′-{[6-Chloro-1-(pyridin-2-ylmethyl)-1H-indol-3-yl]carbonyl}-3H-spiro[2-benzofuran-1,4′-piperidin]-3-one] | 1.5 nM |
| Cn1cncc1Cn1cc(C(=O)N2CCC3(CC2)OC(=O)c2cc(F)ccc23)c2ccc(Cl)cc21 [Example 183, 1′-({6-Chloro-1-[(1-methyl-1H-imidazol-5-yl)methyl]-1H-indol-3-yl}carbonyl)-5-fluoro-3H-spiro[2-benzofuran-1,4′-piperidin]-3-one] | 5.2 nM |
| Cc1cc(Cn2cc(C(=O)N3CCC4(CC3)OC(=O)c3cc(F)ccc34)c3ccc(Cl)cc32)on1 [Example 184, 1′-({6-Chloro-1-[(3-methylisoxazol-5-yl)methyl]-1H-indol-3-yl}carbonyl)-5-fluoro-3H-spiro[2-benzofuran-1,4′-piperidin]-3-one] | 3.4 nM |
| Cc1noc(C)c1Cn1cc(C(=O)N2CCC3(CC2)OC(=O)c2cc(F)ccc23)c2ccc(Cl)cc21 [Example 186, 1′-({6-Chloro-1-[(3,5-dimethylisoxazol-4-yl)methyl]-1H-indol-3-yl}carbonyl)-5-fluoro-3H-spiro[2-benzofuran-1,4′-piperidin]-3-one] | 2.9 nM |
| Cc1nc(Cn2cc(C(=O)N3CCC4(CC3)OC(=O)c3cc(F)ccc34)c3ccc(Cl)cc32)c(C)o1 [Example 187, 1′-({6-Chloro-1-[(2,5-dimethyl-1,3-oxazol-4-yl)methyl]-1H-indol-3-yl}carbonyl)-5-fluoro-3H-spiro[2-benzofuran-1,4′-piperidin]-3-one] | 3.6 nM |
| O=C1OC2(CCN(C(=O)c3cn(CC4(F)COC4)c4cc(Cl)ccc34)CC2)c2ccc(F)cc21 [Example 188, 1′-({6-Chloro-1-[(3-fluorooxetan-3-yl)methyl]-1H-indol-3-yl}carbonyl)-5-fluoro-3H-spiro[2-benzofuran-1,4′-piperidin]-3-one] | 1.6 nM |
| COCC1(Cn2cc(C(=O)N3CCC4(CC3)OC(=O)c3cc(F)ccc34)c3ccc(Cl)cc32)CC1 [Example 190, 1′-[(6-Chloro-1-{[1-(methoxymethyl)cyclopropyl]methyl}-1H-indol-3-yl)carbonyl]-5-fluoro-3H-spiro[2-benzofuran-1,4′-piperidin]-3-one] | 2.6 nM |
| N#CCC1(Cn2cc(C(=O)N3CCC4(CC3)OC(=O)c3cc(F)ccc34)c3ccc(Cl)cc32)CC1 [Example 191, [1-({6-Chloro-3-[(5-fluoro-3-oxo-1′H,3H-spiro[2-benzofuran-1,4′-piperidin]-1′-yl)carbonyl]-1H-indol-1-yl}methyl)cyclopropyl]acetonitrile] | 2.8 nM |
| COCC1(Cn2cc(C(=O)N3CCC4(CC3)OC(=O)c3ccccc34)c3ccc(Cl)cc32)CC1 [Example 192, 1′-[(6-Chloro-1-{[1-(methoxymethyl)cyclopropyl]methyl}-1H-indol-3-yl)carbonyl]-3H-spiro[2-benzofuran-1,4′-piperidin]-3-one] | 2.4 nM |
| N#CCC1(Cn2cc(C(=O)N3CCC4(CC3)OC(=O)c3ccccc34)c3ccc(Cl)cc32)CC1 [Example 193, [1-({6-Chloro-3-[(3-oxo-1′H,3H-spiro[2-benzofuran-1,4′-piperidin]-1′-yl)carbonyl]-1H-indol-1-yl}methyl)cyclopropyl]acetonitrile] | 2.1 nM |
| O=C1OC2(CCN(C(=O)c3cn(CCC4CCOCC4)c4cc(Cl)ccc34)CC2)c2ccc(F)cc21 [Example 195, 1′-({6-Chloro-1-[2-(tetrahydro-2H-pyran-4-yl)ethyl]-1H-indol-3-yl}carbonyl)-5-fluoro-3H-spiro[2-benzofuran-1,4′-piperidin]-3-one hydrochloride] | 2.1 nM |
| O=C1OC2(CCN(C(=O)c3cn(CCC4CCOCC4)c4cc(Cl)ccc34)CC2)c2ccccc21 [Example 196, 1′-({6-Chloro-1-[2-(tetrahydro-2H-pyran-4-yl)ethyl]-1H-indol-3-yl}carbonyl)-3H-spiro[2-benzofuran-1,4′-piperidin]-3-one] | 1.4 nM |
| O=C1OC2(CCN(C(=O)c3cn(Cc4cc(F)cc(F)c4)c4ccccc34)CC2)c2ccc(F)cc21 [Example 201, 1′-{[1-(3,5-Difluorobenzyl)-1H-indol-3-yl]carbonyl}-5-fluoro-3H-spiro[2-benzofuran-1,4′-piperidin]-3-one] | 4.6 nM |

More lines, now with the values ahead:

| Ki | SMILES |
| --- | --- |
| 3.1 nM | Cc1cc(Cn2cc(C(=O)N3CCC4(CC3)OC(=O)c3cc(F)ccc34)c3ccc(Cl)cc32)no1 [Example 179, 1′-({6-Chloro-1-[(5-methylisoxazol-3-yl)methyl]-1H-indol-3-yl}carbonyl)-5-fluoro-3H-spiro[2-benzofuran-1,4′-piperidin]-3-one] |
| 4 nM | Cc1nc(Cn2cc(C(=O)N3CCC4(CC3)OC(=O)c3cc(F)ccc34)c3ccc(Cl)cc32)c(C2CC2)o1 [Example 182, 1′-({6-Chloro-1-[(5-cyclopropyl-2-methyl-1,3-oxazol-4-yl)methyl]-1H-indol-3-yl}carbonyl)-5-fluoro-3H-spiro[2-benzofuran-1,4′-piperidin]-3-one] |
| 2.2 nM | Cc1cc(Cn2cc(C(=O)N3CCC4(CC3)OC(=O)c3cc(F)ccc34)c3ccc(Cl)cc32)nn1C [Example 185, 1′-({6-Chloro-1-[(1,5-dimethyl-1H-pyrazol-3-yl)methyl]-1H-indol-3-yl}carbonyl)-5-fluoro-3H-spiro[2-benzofuran-1,4′-piperidin]-3-one] |
| 1.7 nM | O=C1OC2(CCN(C(=O)c3cn(CC4(F)COC4)c4cc(Cl)ccc34)CC2)c2ccccc21 [Example 189, 1′-({6-Chloro-1-[(3-fluorooxetan-3-yl)methyl]-1H-indol-3-yl}carbonyl)-3H-spiro[2-benzofuran-1,4′-piperidin]-3-one] |
| 15.1 nM | CNCCNC(=O)c1[nH]c2cc(Cl)ccc2c1C(=O)N1CCC2(CC1)OC(=O)c1cc(F)ccc12 [Example 194, 6-Chloro-3-[(5-fluoro-3-oxo-1′H,3H-spiro[2-benzofuran-1,4′-piperidin]-1′-yl)carbonyl]-N-[2-(methylamino)ethyl]-1H-indole-2-carboxamide hydrochloride] |
| 3 nM | CC(C)(C)OC(=O)N1CCOC(Cn2cc(C(=O)N3CCC4(CC3)OC(=O)c3ccccc34)c3ccc(Cl)cc32)C1 (stereo not shown) [Example 197, tert-Butyl 2-({6-chloro-3-[(3-oxo-1′H,3H-spiro[2-benzofuran-1,4′-piperidin]-1′-yl)carbonyl]-1H-indol-1-yl}methyl)morpholine-4-carboxylate] |
| 3.3 nM | O=C1OC2(CCN(C(=O)c3cn(CC4CNCCO4)c4cc(Cl)ccc34)CC2)c2ccccc21 (stereo not shown) [Example 198, 1′-{[6-Chloro-1-(morpholin-2-ylmethyl)-1H-indol-3-yl]carbonyl}-3H-spiro[2-benzofuran-1,4′-piperidin]-3-one hydrochloride] |
| 3.3 nM | CC(C)(C)OC(=O)N1CCOC(Cn2cc(C(=O)N3CCC4(CC3)OC(=O)c3cc(F)ccc34)c3ccc(Cl)cc32)C1 (stereo not shown) [Example 199, tert-Butyl 2-({6-chloro-3-[(5-fluoro-3-oxo-1′H,3H-spiro[2-benzofuran-1,4′-piperidin]-1′-yl)carbonyl]-1H-indol-1-yl}methyl)morpholine-4-carboxylate] |
| 5.8 nM | O=C1OC2(CCN(C(=O)c3cn(CC4CNCCO4)c4cc(Cl)ccc34)CC2)c2ccc(F)cc21 (stereo not shown) [Example 200, 1′-{[6-Chloro-1-(morpholin-2-ylmethyl)-1H-indol-3-yl]carbonyl}-5-fluoro-3H-spiro[2-benzofuran-1,4′-piperidin]-3-one dihydrochloride] |

— patent US7332501B2, “Indol-3-yl-carbonyl-spiro-piperidine derivatives as V1a receptor antagonists” (Hoffmann-La Roche Inc., priority 2005, dated 2008)
